From ChEMBL document CHEMBL5096210, “Discovery of Betulinic Acid Derivatives as Potent Intestinal Farnesoid X Receptor Antagonists to Ameliorate Nonalcoholic Steatohepatitis” (J Med Chem, 2022)
Calls of active or inactive are those of the source. The rule behind the calls is not given here.

Key:
Mus musculus [1] = species on record: Mus musculus; test: Anti-NASH activity in GAN diet-induced […] mouse assessed as increase in Bsep mRNA level; assay type: functional, organism-based
Mus musculus [2] = species on record: Mus musculus; test: Anti-NASH activity in GAN diet-induced […] mouse assessed as reduction in cleaved caspase 1 level; assay type: functional, organism-based
Mus musculus [3] = species on record: Mus musculus; test: Anti-NASH activity in GAN diet-induced […] mouse assessed as reduction in Fabp2 mRNA expression level; assay type: functional, organism-based
Mus musculus [4] = test: Anti-NASH activity in GAN diet-induced […] mouse assessed as reduction of glycosyl-ceramide level in serum administered orally for 12 weeks; assay type: functional, organism-based; conditions: route po
[5] = Cytotoxicity against HEK293T cells cotransfected with pCMV-Script-hFXR/pGL4.11-hSHP-Luciferase incubated for 24 hrs in presence of GW4064 by celltiter-blue cell viability assay; assay type: toxicity, cell-based, HEK-293T; conditions: human
Mus musculus [6] = species on record: Mus musculus; test: Anti-NASH activity in GAN diet-induced […] mouse assessed as reduction in bile acid loss in cecum content; assay type: functional, organism-based
Mus musculus [7] = species on record: Mus musculus; test: Anti-NASH activity in GAN diet-induced […] mouse assessed as suppression of Shp expression; assay type: functional, organism-based
Mus musculus [8] = species on record: Mus musculus; test: Anti-NASH activity in GAN diet-induced […] mouse assessed as increase in hepatic bile acid synthesis; assay type: functional, organism-based
[9] = molecular target: T1, Bile acid receptor (Mus musculus) (UniProt Q60641); test: In vivo antagonist activity against FXR in microbeta depleted mouse assessed as reduction in taurocholic acid induced FXR mRNA expression in hepatic signaling at 10 mg/kg, po incubated for 2 to 48 hrs; assay type: functional, organism-based; conditions: time 2-48 hrs
T1 sequence (whole entry): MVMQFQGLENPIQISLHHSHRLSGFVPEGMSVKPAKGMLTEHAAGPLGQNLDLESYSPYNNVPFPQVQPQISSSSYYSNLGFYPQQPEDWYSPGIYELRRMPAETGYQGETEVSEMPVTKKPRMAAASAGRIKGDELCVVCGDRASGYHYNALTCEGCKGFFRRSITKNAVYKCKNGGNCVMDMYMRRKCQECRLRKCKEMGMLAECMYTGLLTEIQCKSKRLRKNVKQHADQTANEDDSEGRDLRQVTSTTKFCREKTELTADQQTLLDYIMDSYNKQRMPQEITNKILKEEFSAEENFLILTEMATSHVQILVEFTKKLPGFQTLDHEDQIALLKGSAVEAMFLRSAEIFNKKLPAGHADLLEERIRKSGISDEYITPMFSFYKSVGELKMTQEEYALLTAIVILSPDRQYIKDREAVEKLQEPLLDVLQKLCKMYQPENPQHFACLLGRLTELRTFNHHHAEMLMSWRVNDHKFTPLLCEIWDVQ

Mus musculus [10] = test: Anti-NASH activity in GAN-induced […] mouse assessed as reduction in body weight at 10 mg/kg, IG measured after 12 weeks; assay type: functional, organism-based
Mus musculus [11] = species on record: Mus musculus; test: Anti-NASH activity in GAN diet-induced […] mouse assessed as reduction in Col1a1 level; assay type: functional, organism-based
Mus musculus [12] = species on record: Mus musculus; test: Anti-NASH activity in GAN diet-induced […] mouse assessed as reduction in N-tcp mRNA level; assay type: functional, organism-based
Mus musculus [13] = species on record: Mus musculus; test: Anti-NASH activity in GAN diet-induced […] mouse assessed as reduction in Dgat2 level; assay type: functional, organism-based
Mus musculus [14] = test: Anti-NASH activity in GAN-induced […] mouse assessed as reduction in fat/lean index at 10 mg/kg, IG measured after 12 weeks; assay type: functional, organism-based
[15] = Drug distribution in C57BL6 mouse intestine at 10 mg/kg, po administered as single dose measured after 8 hrs; assay type: ADME, organism-based; conditions: in vivo
[16] = Drug metabolism in C57BL6 mouse liver assessed as ((1S,3aS,5aR,5bR,7aR,9R,11aR,11bR,13aR,13bR)-9-hydroxy-1-isopropyl-5a,5b,8,8,11a-pentamethylicosahydro-1H-cyclopenta[a]chrysene-3a-carbonyl)glycine formation at 10 mg/kg, po administered as single dose measured after 2 hrs; assay type: ADME, organism-based; conditions: in vivo
Liver [17] = test: Anti-NASH activity in GAN diet-induced […] mouse liver assessed as reduction in macrosteatosis by Oil Red O staining based assay; assay type: functional
[18] = molecular target: T1, Bile acid receptor (Mus musculus); test: In vivo antagonist activity against FXR in mouse assessed as reduction in Tgr5 expression in small intestine organoids; assay type: functional
Bile acid receptor = molecular target: T2, Bile acid receptor (Homo sapiens, UniProt Q96RI1); test: Antagonist activity at FXR (unknown origin) expressed in HEK293T cells cotransfected with pCMV-Script-hFXR/pGL4.11-hSHP-Luciferase incubated for 24 hrs in presence of GW4064 by Steady-glo luciferase assay; assay type: cell-based
T2 sequence (Q96RI1 whole entry): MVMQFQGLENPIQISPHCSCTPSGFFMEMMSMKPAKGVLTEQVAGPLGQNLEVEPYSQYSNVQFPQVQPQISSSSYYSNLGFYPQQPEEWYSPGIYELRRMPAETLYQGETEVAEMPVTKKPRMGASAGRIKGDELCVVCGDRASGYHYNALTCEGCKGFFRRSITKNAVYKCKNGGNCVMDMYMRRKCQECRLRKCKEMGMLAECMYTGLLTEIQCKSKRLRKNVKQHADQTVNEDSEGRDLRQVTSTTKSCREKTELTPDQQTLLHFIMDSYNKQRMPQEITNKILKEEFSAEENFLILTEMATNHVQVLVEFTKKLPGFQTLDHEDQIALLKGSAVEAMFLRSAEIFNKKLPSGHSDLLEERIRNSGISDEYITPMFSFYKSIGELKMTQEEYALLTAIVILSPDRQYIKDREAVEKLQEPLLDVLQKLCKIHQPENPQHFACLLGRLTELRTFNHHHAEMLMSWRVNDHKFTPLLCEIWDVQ

Mus musculus [19] = species on record: Mus musculus; test: Anti-NASH activity in GAN diet-induced […] mouse assessed as reduction in liver index; assay type: functional, organism-based
Mus musculus [20] = species on record: Mus musculus; test: Anti-NASH activity in GAN diet-induced […] mouse assessed as increase in bile acid level in liver; assay type: functional, organism-based
Mus musculus [21] = test: Anti-NASH activity in GAN diet-induced […] mouse assessed as reduction of dihydroceramide level in serum administered orally for 12 weeks; assay type: functional, organism-based; conditions: route po
Mus musculus [22] = species on record: Mus musculus; test: Anti-NASH activity in GAN diet-induced […] mouse assessed as reduction in Fabp4 mRNA expression level; assay type: functional, organism-based
Mus musculus [23] = test: Anti-NASH activity in HFMCD diet-induced […] mouse assessed as reduction in hepatic hydroxyproline level at 30 mg/kg, po for 4 weeks; assay type: functional, organism-based
Mus musculus [24] = species on record: Mus musculus; test: Anti-NASH activity in GAN diet-induced […] mouse assessed as reduction in mature Il1beta; assay type: functional, organism-based
Mus musculus [25] = test: Anti-NASH activity in GAN-induced […] mouse assessed as reduction in random blood glucose level at 10 mg/kg measured upto 120 mins; assay type: functional, organism-based
Mus musculus [26] = species on record: Mus musculus; test: Anti-NASH activity in GAN diet-induced […] mouse assessed as suppression of O-sta expression; assay type: functional, organism-based
Liver [27] = test: Anti-NASH activity in GAN diet-induced […] mouse liver assessed as reduction in macrosteatosis by Sirius red staining based analysis; assay type: functional
Mus musculus [28] = test: Anti-NASH activity in HFMCD diet-induced […] mouse assessed as reduction in hepatic TG concentration at 10 to 30 mg/kg, po for 4 weeks; assay type: functional, organism-based; conditions: dose 10-30 mg/kg

Compound: CCCC(=O)O[C@@H]1CC[C@]2(C)[C@H]3CC[C@@H]4[C@H]5[C@H](C(C)C)CC[C@]5(C(=O)NCC(=O)O)CC[C@@]4(C)[C@]3(C)CC[C@H]2C1(C)C
- Activity (Mus musculus [1]): Active
- Activity (Mus musculus [2]): Active
- Activity (Mus musculus [3]): Active
- Activity (Mus musculus [4]): Active
- IC50 at 24 h [5]: > 100000 nM
- Activity (Mus musculus [6]): Active
- Activity (Mus musculus [7]): Active
- Activity (Mus musculus [8]): Active
- Activity [9]: Active
- Activity (Mus musculus [10]): Active
- Activity (Mus musculus [11]): Active
- Activity (Mus musculus [12]): Active
- Activity (Mus musculus [13]): Active
- Activity (Mus musculus [14]): Active
- Drug uptake [15]: Active
- Drug metabolism [16]: Metabolite_Detected
- Activity (Liver [17]): Active
- Activity [18]: Active
- IC50 (Bile acid receptor): 2100 nM
- Activity (Mus musculus [19]): Active
- Activity (Mus musculus [20]): Active
- Activity (Mus musculus [21]): Active
- Activity (Mus musculus [22]): Active
- Activity (Mus musculus [23]): Active
- Activity (Mus musculus [24]): Active
- Activity (Mus musculus [25]): Active
- Activity (Mus musculus [26]): Active
- Activity (Liver [27]): Active
- Activity (Mus musculus [28]): Active
